Like-named read-outs stand apart in the source and are kept apart here.
Assays:
[1] = tested on: TNF^ΔARE/+ model of Crohn's-like ileitis; conditions: TNFΔARE/+ ileum
Experimental: Mouse Experiments: All animal protocols were approved by the Vanderbilt University Animal Care and Use Committee and in accordance with NIH guidelines. Lrig1^CreERT2 and Atoh1^flox/flox strains, each in a C57BL/6 background, were purchased from Jackson Laboratory to generate Lrig1^CreERT2/+; Atoh1^fl/fl (AtohKO) animals Cre recombinase activity was induced in two- or three-month-old Lrig1^CreERT2/+; Atoh1^fl/fl and Lrig1^+/+; Atoh1^fl/fl males via intraperitoneal administration of 2 mg of tamoxifen (Sigma-Aldrich) for four consecutive days. Mice were sacrificed and tissues were harvested twenty-one days after the first injection. TNF^ΔARE/+ and wildtype littermates were sacrificed at four months of age after disease onset, followed by tissue collection Animal weights were recorded at regular intervals.
(§1) Mid-dose antibiotics and low-dose antibiotics were 0.75× and 0.25× of the original 1× concentration, respectively.
(§2) Immunofluorescence staining and imaging: Paraffin-embedded ileal tissues were section (5 μm) prior to deparaffinization, rehydration, and antigen retrieval using a citrate buffer (pH 6.0) for 20 minutes in a pressure cooker at 105° C., followed by a 20-minute cool down at room temperature (RT). Endogenous background signal was quenched by incubating tissue slides in 3% hydrogen peroxide for 10 minutes at RT. Tissue sections were blocked in staining buffer (3% bovine serum albumin/10% normal donkey serum) for 1 hour at RT prior to incubation with primary antibody overnight at RT. Antibodies used for immunofluorescence included those against LYZ1 (DAKO, 1:100, rabbit), MUC2 (Santa Cruz, 1:100, rabbit), MPO (DAKO, 1:100, rabbit), DCLK1 (Santa Cruz, 1:100, goat), FOXP3 (eBioscience, 1:50, rat), and GATA3 (Abcam, 1:50, rabbit). Sections were then incubated with AlexaFluor (AF)-555- or AF-647-conjugated secondary antibodies (Life Technologies, 1:500) for 1 hour at RT and Hoechst (1:10,000, Life Technologies) for 10 min at RT. For human tuft cell labeling, AF-488-conjugated pEGFR (Abcam, 1:100) and unconjugated COX2 (CST, 1:100, rabbit) were used. Slides were incubated with anti-rabbit AF-647-conjugated secondary antibody and stained with Hoechst. Imaging was performed using a Zeiss Axio Imager M2 microscope with Axiovision digital imaging system (Zeiss, Jena GmBH, Germany).
Image quantification: To quantify human tuft cells, the number of crypt and villus structures were counted per field of view (FOV) for each subject (approximately 15-20 FOVs per sample). Tuft cell number, as identified by pEGFR and COX co-labeling, was manually counted per FOV in a blinded fashion. Quantification of tuft cell number per epithelial structure (crypt and villus) was generated for each subject and then stratified by disease state (“normal” or “Crohn's disease”) based on the pathology report. Results were analyzed by t-test using Prism GraphPad. For MUC2 quantification, manual demarcation of the epithelial villi was performed in each FOV and a nuclear mask was generated based on Hoechst staining.

[2] = tested on: tuft cells
Experimental: as §2

[3] = tested on: ATOH1-independent tuft cells; conditions: antibiotic-treated AtohKO animals; small intestine
Excerpt: as §1

[4] = tested on: TCA cycle genes
[5] = tested on: cytokine levels; test: Multiplex Luminex cytokine levels in short-term succinate-treated TNFΔARE/+ animals
[6] = tested on: AtohKO enteroids; test: IL-13 administration in enteroids; format: cell-based, mouse; conditions: level similar to IL-13 in control enteroids
Experimental: Enteroid Experiment: Ileal tissue was dissected and incubated in chelation buffer (3 mM EDTA/EGTA, 0.5 mM DTT, 1% P/S) at 4° C. for 45 minutes. The tissue was shaken in PBS and filtered through a 100 μm filter to isolate individual ileal crypts. The crypt suspension was centrifuged at 2.8×1000 RPM for 1½ minutes at 4° C. following which 10 μl of crypt pellet was resuspended in 300 μl of reduced growth factor Matrigel and embedded in a 24-well dish. Enteroids were cultured initially in IntestiCult Organoid Growth Medium (StemCell Technologies) supplemented with Primocin antimicrobial reagent (InvivoGen, 1:1000) for 4 days before being changed to Primocin-supplemented differentiation media. For ex vivo Cre-activation, Lrig1^CreERT2/+ Atoh1^fl/fl enteroids were treated overnight at 37° C. with either 1 μM 4-hydroxytamoxifen (Sigma-Aldrich) or vehicle (ethanol) in differentiation media. Enteroids were passaged the following day into 8-well chamber slides and, after 5 days, were fixed on ice using 4% PFA for immunofluorescence staining.
Enteroid Immunofluorescence Staining: Fixed enteroids were permeabilized with Triton X-100 for 30 min and blocked with 1% normal donkey serum (PBS) for 30 min at RT. Enteroids were stained with primary antibodies against LYZ1 (DAKO, 1:100, rabbit), MUC2 (Santa Cruz, 1:100, rabbit), and DCLK1 (Santa Cruz, 1:100, goat). […]

[7] = succinate-treated intestinal tissues
[8] = short-term succinate vs untreated controls

In the case of `O=C(O)CCC(=O)O` [succinate, succinic acid], the “FOXP3+ T-regulatory cells” value ([1]; long-term (1 month) succinate treatment) was “significantly reduced”, the “DCLK1+ tuft cells” value ([1]; succinate-treated) was “increased” and the “stromal LYZ1 expression” value ([1]; succinate-treated) was “less stromal LYZ1 expression”. The “depth of inflammation (0-4), pathological scoring” value ([1]; succinate-treated vs control) was “decreased mucosal destruction”, the “extent of tissue injury (0-4), pathological scoring” value ([1]; succinate-treated vs control) was “decreased mucosal destruction” and the tuft cell expansion ([2]; exogenous succinate administration, small intestine) was “induces tuft cell expansion”. For the same molecule, the “tuft cell expansion in the colon” value ([2]; succinate administration, colon) was “did not induce tuft cell expansion”, the “GATA3+ cells” value [2, 7] was “increased” and the “major basic protein-positive eosinophils” value [2, 7] was “increased”. The tuft cell expansion [3] was “restored tuft cell expansion to microbiome-replete levels”, the weight gain (TNFΔARE/+ animals, succinate in drinking water) was “failed to gain as much weight as untreated controls” and the weight gain (wildtype animals treated with succinate) was “minimal weight gain”. The “expression of Idh3b, Idh3a, Sdha, Sdhd in the tuft cell lineage” value ([4]; exogenous succinate treatment) was “induced”, the “expression of genes such as Sdhc in the secretory lineage” value ([4]; succinate treatment) was “significantly reduced” and the “relative expression of Mdh2 and Sdhc in enterocytes” value ([4]; untreated and succinate-treated enterocytes) was “constitutively high”. For the same molecule, the IL-17A ([5]; short-term (<1 week) succinate) was “significant increase”, the IL-17F ([5]; short-term (<1 week) succinate) was “significant increase” and the IL-22 levels ([5]; short-term (<1 week) succinate) was “increased levels”. The IL-23 levels ([5]; short-term (<1 week) succinate) was “significantly reduced”, the IL-27 expression ([5]; short-term (<1 week) succinate) was “induced” and the IL-5 ([5]; short-term succinate) was “increased”. The IL-9 ([5]; short-term succinate) was “increased”, the IL-10 ([5]; short-term succinate) was “increased” and the IL-4 levels [5, 8] was “significantly increased”. The IL-13 levels [5, 8] was “significantly increased”, the IL-25 levels [5, 8] was “significantly increased” and the TNF-α levels ([5]; succinate treatment) was “did not result in decreased TNF-α levels”.
In the case of “IL-13: type 2 cytokine interleukin-13 administered to enteroids”, the “tuft cell specification and expansion” value [6] was “induced tuft cell specification and expansion”.

Source: patent publication US20220047538A1, “TUFT CELL SPECIFICATION IN INFLAMMATORY ILEITIS” (VANDERBILT UNIVERSITY, priority 2019, published 2022)
